In US12679878B2, “CRF2 receptor agonists and their use in therapy” (SANOFI, priority 2020, dated 2026):
One block for each molecule: values may come before it. Starred links: 1 amine or outer side, 2 acyl side, 3 side chain; linkers in the order of their positions; H or OH if unused. Non-standard residues stand in square brackets, D forms with d. Residues, ends and D or L forms follow the SMILES beside them. Groups on a side chain read outwards from the residue. No end group written: not given here. *: point of attachment. C18 diacid = O=C(O)CCCCCCCCCCCCCCCCC(=O)*; C16 diacid = O=C(O)CCCCCCCCCCCCCCC(=O)*; γGlu = O=C(O)[C@H](CCC(=O)[*:2])N[*:1]; AEEA = NCCOCCOCC(=O)O; Aib = CC(C)(N)C(=O)O

Assays:
[1] = Effect on blood pressure, telemetry (Example 17); format: in vivo; details: Sprague Dawley rats, 0.1 mg/kg SC
Experimental: The effect of the compounds on blood pressure was determined in telemetry studies in Sprague Dawley rats at a dosage of 0.1 mg/kg SC.
The rats were previously implanted with a telemetry device (DSI, Saint-Paul, USA, HD-S10, HD-S11 or HD S21) and allowed to recover for a minimum period of 2 weeks before treatment with vehicle or the different peptides. Blood pressure (BP) was recorded through a catheter inserted into the abdominal aorta. The device body was placed in the abdomen. At the end of surgery, animals were placed in individual cages until the end of the study.
Pressure signals were recorded for one hour before the treatment (basal period). Thereafter, the subcutaneous administration of the test compound or its vehicle was performed, under continuous recording of the signal over a 48-hour period. Data acquisition was performed using Hem 4.3 acquisition software (Notocord®, Le Pecq, France) connected to the telemetry device. Hemodynamic parameters were recorded during a […] before treatment and every 4-hour period following subcutaneous administration over 48 hours.
Investigated parameters (calculated from BP signal) were Heart Rate (HR) in beats per minute (bpm), Diastolic and Systolic Blood Pressure (DBP) in mmHg, and Mean Blood Pressure (MBP) in mmHg.
Data from Hem were manipulated using Microsoft Excel®. For each parameter, a basal value was determined as the average calculated over a 1-hour period during the pre-treatment sequence, and the values post treatment were calculated over 4-hour periods ([0-4], [4-8], [8-12], [12-16], [16-20], [20-24], [24-28], [32-36], [36-40], [40-44] and [44-48] hours) covering the 48-hour period following administration.
Representative data are presented in Table 15 below, in which “n” represents the number of animals for which individual values were obtained and “Duration” indicates the last time point for which a significant effect on BP was still seen: Table 15

[2] = target: human corticotropin-releasing factor 2α receptor (CRF2α receptor) (human), Q13324; assay: cell-based or functional assay
Chain of human corticotropin-releasing factor 2α receptor (CRF2α receptor) (human), Q13324 (Q13324 20-411): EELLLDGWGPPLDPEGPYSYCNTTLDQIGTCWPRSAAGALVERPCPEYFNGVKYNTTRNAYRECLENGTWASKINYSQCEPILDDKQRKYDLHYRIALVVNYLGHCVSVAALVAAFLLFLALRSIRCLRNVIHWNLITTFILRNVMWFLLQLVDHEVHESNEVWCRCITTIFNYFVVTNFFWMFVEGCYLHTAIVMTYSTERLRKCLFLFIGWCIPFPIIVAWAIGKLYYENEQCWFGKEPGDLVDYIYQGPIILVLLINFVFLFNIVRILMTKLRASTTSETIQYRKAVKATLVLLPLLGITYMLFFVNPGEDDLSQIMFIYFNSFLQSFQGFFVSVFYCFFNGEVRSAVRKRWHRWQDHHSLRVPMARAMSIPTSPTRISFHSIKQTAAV

[3] = target: human corticotropin-releasing factor 2α (CRF2α receptor) (human), Q13324; assay: cell-based or functional assay
Chain of human corticotropin-releasing factor 2α (CRF2α receptor) (human), Q13324 (Q13324 20-411): as above

Molecule: CC[C@H](C)[C@H](N)C(=O)N[C@H](C(=O)N[C@@H](CC(C)C)C(=O)N[C@@H](CO)C(=O)N[C@@H](CC(C)C)C(=O)N[C@@H](CC(=O)O)C(=O)N[C@@H](C(=O)N1CCC[C@H]1C(=O)N[C@H](C(=O)N[C@@H](CCCCN)C(=O)N[C@@H](CC(C)C)C(=O)N[C@@H](CCCCNC(=O)COCCOCCNC(=O)COCCOCCNC(=O)CC[C@H](NC(=O)CCCCCCCCCCCCCCCCC(=O)O)C(=O)O)C(=O)N[C@@H](CCC(N)=O)C(=O)N[C@H](C(=O)N[C@@H](CC(C)C)C(=O)N[C@@H](CC(C)C)C(=O)N[C@@H](CCCCN)C(=O)N[C@@H](CCC(N)=O)C(=O)N[C@@H](CCC(=O)O)C(=O)N[C@@H](CCCNC(=N)N)C(=O)N[C@@H](CCC(N)=O)C(=O)N[C@@H](CCCCN)C(=O)N[C@@H](CCCCN)C(=O)NC(C)(C)C(=O)N[C@@H](CCCNC(=N)N)C(=O)N[C@@H](CCC(=O)O)C(=O)N[C@@H](CCC(N)=O)C(=O)N[C@@H](C)C(=O)N[C@@H](CCC(=O)O)C(=O)N[C@H](C(=O)N[C@@H](CC(N)=O)C(=O)N[C@@H](CCCCN)C(=O)N[C@@H](CCCNC(=N)N)C(=O)N[C@H](C(=O)N[C@@H](CC(C)C)C(=O)N[C@@H](CCC(=O)O)C(=O)N[C@@H](CCCNC(=N)N)C(=O)N[C@H](C(N)=O)C(C)C)[C@@H](C)CC)[C@@H](C)O)[C@@H](C)CC)[C@@H](C)CC)C(C)C)C(C)C [SEQ ID NO: 149, IVLSLDvPIKLK*QILLKQERQKKAibREQAETNKRILERV-NH2] (H-IVLSLD[dV]PIKLK([AEEA-AEEA-γGlu-C18 diacid])QILLKQERQKK[Aib]REQAETNKRILERV-NH2)
Duration (h): last time point for which a significant effect on BP was still seen [1]: 30 h
Effect on Systolic Pressure % change from baseline 8 h [1]: −11.5%
Effect on Systolic Pressure % change from baseline 24 h [1]: −2.5%

Molecule: CC[C@H](C)[C@H](N)C(=O)N[C@H](C(=O)N[C@@H](CC(C)C)C(=O)N[C@@H](CO)C(=O)N[C@@H](CC(C)C)C(=O)N[C@@H](CC(=O)O)C(=O)N[C@@H](C(=O)N1CCC[C@H]1C(=O)N[C@H](C(=O)NCC(=O)N[C@@H](CC(C)C)C(=O)N[C@@H](CCCCNC(=O)COCCOCCNC(=O)COCCOCCNC(=O)CC[C@H](NC(=O)CCCCCCCCCCCCCCCCC(=O)O)C(=O)O)C(=O)N[C@@H](CCC(N)=O)C(=O)N[C@H](C(=O)N[C@@H](CC(C)C)C(=O)N[C@@H](CC(C)C)C(=O)N[C@@H](CCCCN)C(=O)N[C@@H](CCC(N)=O)C(=O)N[C@@H](CCC(=O)O)C(=O)N[C@@H](CCCNC(=N)N)C(=O)N[C@@H](CCC(N)=O)C(=O)N[C@@H](CCCCN)C(=O)N[C@@H](CCCCN)C(=O)NC(C)(C)C(=O)N[C@@H](CCCNC(=N)N)C(=O)N[C@@H](CCC(=O)O)C(=O)N[C@@H](CCC(N)=O)C(=O)N[C@@H](C)C(=O)N[C@@H](CCC(=O)O)C(=O)N[C@@H](CCCCN)C(=O)N[C@@H](CC(N)=O)C(=O)N[C@@H](CCCCN)C(=O)N[C@@H](CCCNC(=N)N)C(=O)N[C@H](C(=O)N[C@@H](CC(C)C)C(=O)N[C@@H](CCC(=O)O)C(=O)N[C@@H](CCCNC(=N)N)C(=O)N[C@H](C(N)=O)C(C)C)[C@@H](C)CC)[C@@H](C)CC)[C@@H](C)CC)C(C)C)C(C)C [SEQ ID NO: 151, IVLSLDvPIGLK*QILLKQERQKKAibREQAEKNKRILERV-NH2] (H-IVLSLD[dV]PIGLK([AEEA-AEEA-γGlu-C18 diacid])QILLKQERQKK[Aib]REQAEKNKRILERV-NH2)
Duration (h): last time point for which a significant effect on BP was still seen [1]: 28 h
Effect on Systolic Pressure % change from baseline 8 h [1]: −12.3%
Effect on Systolic Pressure % change from baseline 24 h [1]: −3.8%

Molecule: CC[C@H](C)[C@H](N)C(=O)N[C@H](C(=O)N[C@@H](CC(C)C)C(=O)N[C@@H](CO)C(=O)N[C@@H](CC(C)C)C(=O)N[C@@H](CC(=O)O)C(=O)N[C@H](C(=O)N1CCC[C@H]1C(=O)N[C@H](C(=O)N[C@@H](CCCCN)C(=O)N[C@@H](CC(C)C)C(=O)N[C@@H](CCCCNC(=O)COCCOCCNC(=O)COCCOCCNC(=O)CC[C@H](NC(=O)CCCCCCCCCCCCCCCCC(=O)O)C(=O)O)C(=O)N[C@@H](CCC(N)=O)C(=O)N[C@H](C(=O)N[C@@H](CC(C)C)C(=O)N[C@@H](CC(C)C)C(=O)N[C@@H](CCCCN)C(=O)N[C@@H](CCC(N)=O)C(=O)N[C@@H](CCC(=O)O)C(=O)N[C@@H](CCCNC(=N)N)C(=O)N[C@@H](CCC(N)=O)C(=O)N[C@@H](CCCCN)C(=O)N[C@@H](CCCCN)C(=O)NC(C)(C)C(=O)N[C@@H](CCCNC(=N)N)C(=O)N[C@@H](CCC(=O)O)C(=O)N[C@@H](CCC(N)=O)C(=O)N[C@@H](C)C(=O)N[C@@H](CCC(=O)O)C(=O)N[C@H](C(=O)N[C@@H](CC(N)=O)C(=O)N[C@@H](CCCCN)C(=O)N[C@@H](CCCNC(=N)N)C(=O)N[C@H](C(=O)N[C@@H](CC(C)C)C(=O)N[C@@H](CCC(=O)O)C(=O)N[C@@H](CCCNC(=N)N)C(=O)N[C@H](C(N)=O)C(C)C)[C@@H](C)CC)[C@@H](C)O)[C@@H](C)CC)[C@@H](C)CC)C(C)C)C(C)C [SEQ ID NO: 152, IVLSLDVPIKLK*QILLKQERQKKAibREQAETNKRILERV-NH2] (H-IVLSLDVPIKLK([AEEA-AEEA-γGlu-C18 diacid])QILLKQERQKK[Aib]REQAETNKRILERV-NH2)
Duration (h): last time point for which a significant effect on BP was still seen [1]: 20 h
Effect on Systolic Pressure % change from baseline 8 h [1]: −8.6%
Effect on Systolic Pressure % change from baseline 24 h [1]: −6.0%

CRF2 EC50 (cAMP, HTRF) [2]: 0.44 nM
EC50 [nM], 0% HSA (cAMP, HTRF) [3]: 0.44 nM
B1: peptide of SEQ ID NO: 187 (peptide)
peptide: IVLSLD[dV]PIKLK([γGlu-C16 diacid])QILLKQERQK[Aib]QREQAEKNKQILAQV-NH2
modifications: N-terminus assumed
SMILES: CC[C@H](C)[C@H](N)C(=O)N[C@H](C(=O)N[C@@H](CC(C)C)C(=O)N[C@@H](CO)C(=O)N[C@@H](CC(C)C)C(=O)N[C@@H](CC(=O)O)C(=O)N[C@@H](C(=O)N1CCC[C@H]1C(=O)N[C@H](C(=O)N[C@@H](CCCCN)C(=O)N[C@@H](CC(C)C)C(=O)N[C@@H](CCCCNC(=O)CC[C@H](NC(=O)CCCCCCCCCCCCCCC(=O)O)C(=O)O)C(=O)N[C@@H](CCC(N)=O)C(=O)N[C@H](C(=O)N[C@@H](CC(C)C)C(=O)N[C@@H](CC(C)C)C(=O)N[C@@H](CCCCN)C(=O)N[C@@H](CCC(N)=O)C(=O)N[C@@H](CCC(=O)O)C(=O)N[C@@H](CCCNC(=N)N)C(=O)N[C@@H](CCC(N)=O)C(=O)N[C@@H](CCCCN)C(=O)NC(C)(C)C(=O)N[C@@H](CCC(N)=O)C(=O)N[C@@H](CCCNC(=N)N)C(=O)N[C@@H](CCC(=O)O)C(=O)N[C@@H](CCC(N)=O)C(=O)N[C@@H](C)C(=O)N[C@@H](CCC(=O)O)C(=O)N[C@@H](CCCCN)C(=O)N[C@@H](CC(N)=O)C(=O)N[C@@H](CCCCN)C(=O)N[C@@H](CCC(N)=O)C(=O)N[C@H](C(=O)N[C@@H](CC(C)C)C(=O)N[C@@H](C)C(=O)N[C@@H](CCC(N)=O)C(=O)N[C@H](C(N)=O)C(C)C)[C@@H](C)CC)[C@@H](C)CC)[C@@H](C)CC)C(C)C)C(C)C

CRF2 EC50 (cAMP, HTRF) [2]: 3.49 nM
EC50 [nM], 0% HSA (cAMP, HTRF) [3]: 3.49 nM
B2: peptide of SEQ ID NO: 189 (peptide)
peptide: IVLSLD[dV]PIKLK([γGlu-C16 diacid])QILLKQERQKK[Aib]RQKAEKNKQILAQV-NH2
modifications: N-terminus assumed
SMILES: CC[C@H](C)[C@H](N)C(=O)N[C@H](C(=O)N[C@@H](CC(C)C)C(=O)N[C@@H](CO)C(=O)N[C@@H](CC(C)C)C(=O)N[C@@H](CC(=O)O)C(=O)N[C@@H](C(=O)N1CCC[C@H]1C(=O)N[C@H](C(=O)N[C@@H](CCCCN)C(=O)N[C@@H](CC(C)C)C(=O)N[C@@H](CCCCNC(=O)CC[C@H](NC(=O)CCCCCCCCCCCCCCC(=O)O)C(=O)O)C(=O)N[C@@H](CCC(N)=O)C(=O)N[C@H](C(=O)N[C@@H](CC(C)C)C(=O)N[C@@H](CC(C)C)C(=O)N[C@@H](CCCCN)C(=O)N[C@@H](CCC(N)=O)C(=O)N[C@@H](CCC(=O)O)C(=O)N[C@@H](CCCNC(=N)N)C(=O)N[C@@H](CCC(N)=O)C(=O)N[C@@H](CCCCN)C(=O)N[C@@H](CCCCN)C(=O)NC(C)(C)C(=O)N[C@@H](CCCNC(=N)N)C(=O)N[C@@H](CCC(N)=O)C(=O)N[C@@H](CCCCN)C(=O)N[C@@H](C)C(=O)N[C@@H](CCC(=O)O)C(=O)N[C@@H](CCCCN)C(=O)N[C@@H](CC(N)=O)C(=O)N[C@@H](CCCCN)C(=O)N[C@@H](CCC(N)=O)C(=O)N[C@H](C(=O)N[C@@H](CC(C)C)C(=O)N[C@@H](C)C(=O)N[C@@H](CCC(N)=O)C(=O)N[C@H](C(N)=O)C(C)C)[C@@H](C)CC)[C@@H](C)CC)[C@@H](C)CC)C(C)C)C(C)C
